The values that follow come from US20180271873A1, “METHODS FOR TREATING VIRAL INFECTIONS” (priority 2015, published 2018).

In general, EC50 refers to the midpoint of the concentration-response curve.

The subject of this test is GFP-expressing Zaire Ebolavirus Mayinga-GFP. The experiment in a line: microbe, parasite or virus in culture. It counts as cell-based. To be noted: HeLa, read-out: Activity (Biological activity, EC50).

In the case of `Cc1cccc(/C=N/Nc2nc(OCCc3ccccn3)nc(N3CCOCC3)c2Cl)c1` [Compound 39, (E)-4-(5-Chloro-6-(2-(3-methylbenzylidene)hydrazinyl)-2-(2-(pyridin-2-yl)ethoxy)pyrimidin-4-yl)morpholine], the concentration giving a half-maximal response (EC50) was > 50 µM. In the case of `CS(=O)(=O)c1cccc(/C=N/Nc2cc(N3CCOCC3)nc(OCCc3ccccn3)n2)c1` [Compound 61, (E)-4-(6-(2-(3-(Methylsulfonyl)benzylidene)hydrazinyl)-2-(2-(pyridin-2-yl)ethoxy)pyrimidin-4-yl)morpholine] it was > 50 µM. In the case of `Cc1cccc(/C=N/Nc2cc(N3CCOCC3)nc(OCc3ncccn3)n2)c1` [Compound 5, (E)-4-(6-(2-(3-Methylbenzylidene)hydrazinyl)-2-(pyrimidin-2-ylmethoxy)pyrimidin-4-yl)morpholine] it was < 1 µM; in that of `Cc1cccc(/C=N/Nc2cc(N3CCOCC3)nc(OCc3nc4ccccc4c(=O)[nH]3)n2)c1` [Compound 64, (E)-2-((4-(2-(3-Methylbenzylidene)hydrazinyl)-6-morpholinopyrimidin-2-yloxy)methyl)quinazolin-4(3H)-one], < 1 µM. In the case of `C(=N\Nc1cc(N2CCOCC2)nc(OCCc2ccccn2)n1)/c1ccccc1` [Compound 46, (E)-4-(6-(2-Benzylidenehydrazinyl)-2-(2-(pyridin-2-yl)ethoxy)pyrimidin-4-yl)morpholine] it was 1 to 50 µM. `Cc1cccc(/C=N/Nc2cc(N3CCOCC3)nc(OCCc3ccccn3)n2)c1` [Compound 11, (E)-4-(6-(2-(3-Methylbenzylidene)hydrazinyl)-2-(2-(pyridin-2-yl)ethoxy)pyrimidin-4-yl)morpholine]: the EC50 is < 1 µM.

Consider `Cc1cccc(/C=N/Nc2cc(N3CCOCC3)nc(Oc3ccc4ncc(F)cc4c3)n2)c1` [Compound 67, (E)-4-(2-(3-Fluoroquinolin-6-yloxy)-6-(2-(3-methylbenzylidene)hydrazinyl)pyrimidin-4-yl)morpholine], for which the 50% effective concentration (EC50) is < 1 µM. In the case of `FC(F)(F)c1cccc(/C=N/Nc2cc(N3CCOCC3)nc(OCCc3ccccn3)n2)c1` [Compound 33, (E)-4-(2-(2-(Pyridin-2-yl)ethoxy)-6-(2-(3-(trifluoromethyl)benzylidene)hydrazinyl)pyrimidin-4-yl)morpholine] it was < 1 µM.

`Cc1cccc(/C=N/Nc2cc(N3CCOCC3)nc(Oc3ccc4nccc(C)c4c3)n2)c1` [Compound 68, (E)-4-(6-(2-(3-Methylbenzylidene)hydrazinyl)-2-(4-methylquinolin-6-yloxy)pyrimidin-4-yl)morpholine]: the EC50 is < 1 µM.

In the case of `Cc1cccc(/C=N/Nc2cc(N3CCOCC3)nc(OCCc3ccccc3)n2)c1` [Compound 20, (E)-4-(6-(2-(3-Methylbenzylidene)hydrazinyl)-2-phenethoxypyrimidin-4-yl)morpholine], the half-maximal effective concentration (EC50) lay within 1 to 50 µM.

For `Cc1cccc(/C=N/Nc2cc(C3CCOCC3)nc(OCCc3ccccn3)n2)c1` [Compound 41, (E)-4-(2-(3-Methylbenzylidene)hydrazinyl)-2-(2-(pyridin-2-yl)ethoxy)-6-(tetrahydro-2H-pyran-4-yl)pyrimidine], the EC50 was > 50 µM. As for `Cc1cccc(/C=N/Nc2cc(N3CCOCC3)nc(NCc3ccccn3)n2)c1` [Compound 18, (E)-4-(2-(3-Methylbenzylidene)hydrazinyl)-6-morpholino-N-(pyridin-2-ylmethyl)pyrimidin-2-amine], the figure is < 1 µM. In the case of `COc1cnc(COc2nc(N/N=C/c3cccc(C)c3)cc(N3CCOCC3)n2)nc1` [Compound 60, (E)-4-(2-((5-Methoxypyrimidin-2-yl)methoxy)-6-(2-(3-methylbenzylidene)hydrazinyl)pyrimidin-4-yl)morpholine] it was < 1 µM; in that of `Cc1cccc(/C=N/Nc2cc(N3CCN(C)CC3)nc(OCCc3ccccn3)n2)c1` [Compound 42, (E)-4-(2-(3-Methylbenzylidene)hydrazinyl)-6-(4-methylpiperazin-1-yl)-2-(2-(pyridin-2-yl)ethoxy)pyrimidine], > 50 µM. As for `Cc1cccc(/C=N/Nc2cc(N3CCOCC3)nc(Oc3ccc4cccnc4c3)n2)c1` [Compound 15, (E)-4-(6-(2-(3-Methylbenzylidene)hydrazinyl)-2-(quinolin-7-yloxy)pyrimidin-4-yl)morpholine], the figure is < 1 µM; as for `Cc1cccc(/C=N/Nc2cc(N3CCOCC3)nc(Oc3ccccc3)n2)c1` [Compound 51, (E)-4-(6-(2-(3-Methylbenzylidene)hydrazinyl)-2-phenoxypyrimidin-4-yl)morpholine], < 1 µM. Turning to `Cc1cnc(COc2nc(N/N=C/c3cccc(C)c3)cc(N3CCOCC3)n2)nc1` [Compound 58, (E)-4-(6-(2-(3-Methylbenzylidene)hydrazinyl)-2-((5-methylpyrimidin-2-yl)methoxy)pyrimidin-4-yl)morpholine], the EC50 was < 1 µM.

In the case of `Cc1cccc(/C=N/Nc2nc(OCCc3ccccn3)nc(N3CCOCC3)c2F)c1` [Compound 40, (E)-4-(5-Fluoro-6-(2-(3-methylbenzylidene)hydrazinyl)-2-(2-(pyridin-2-yl)ethoxy)pyrimidin-4-yl)morpholine], the 50% effective concentration (EC50) is > 50 µM. As for `Cc1cccc(/C=N/Nc2cc(N3CCOCC3)nc(Oc3ccc4nccc(Cl)c4c3)n2)c1` [Compound 63, (E)-4-(2-(4-Chloroquinolin-6-yloxy)-6-(2-(3-methylbenzylidene)hydrazinyl)pyrimidin-4-yl)morpholine], the figure is < 1 µM; as for `Cc1cccc(/C=N/Nc2cc(N3CCSCC3)nc(OCCc3ccccn3)n2)c1` [Compound 26, (E)-4-(6-(2-(3-Methylbenzylidene)hydrazinyl)-2-(2-(pyridin-2-yl)ethoxy)pyrimidin-4-yl)thiomorpholine], 1 to 50 µM; as for `Cc1ccccc1/C=N/Nc1cc(N2CCOCC2)nc(OCCc2ccccn2)n1` [Compound 10, (E)-4-(6-(2-(2-Methylbenzylidene)hydrazinyl)-2-(2-(pyridin-2-yl)ethoxy)pyrimidin-4-yl)morpholine], < 1 µM. As for `Cc1cccc(/C=N/Nc2cc(N3CCOCC3)nc(Oc3ccccn3)n2)c1` [Compound 25, (E)-4-(6-(2-(3-Methylbenzylidene)hydrazinyl)-2-(pyridin-2-yloxy)pyrimidin-4-yl)morpholine], the figure is < 1 µM.

As for `Cc1cccc(/C=N/Nc2nc(OCCc3ccccn3)nc(N3CCOCC3)c2C)c1` [Compound 32, (E)-4-(5-Methyl-6-(2-(3-methylbenzylidene)hydrazinyl)-2-(2-(pyridin-2-yl)ethoxy)pyrimidin-4-yl)morpholine], the 50% effective concentration (EC50) lay in the range of 1 to 50 µM.

For `Cc1cccc(/C=N/Nc2cc(N3CCOCC3)nc(-c3cccc(-c4ccccn4)c3)n2)c1` [Compound 30, (E)-4-(6-(2-(3-Methylbenzylidene)hydrazinyl)-2-(3-(pyridin-2-yl)phenyl)pyrimidin-4-yl)morpholine], the half-maximal effective concentration (EC50) was 1 to 50 µM.
